Reference: patent US20100266501A1, “METHODS AND COMPOSITIONS FOR ORGAN PROTECTION” (University Of Vermont and State Agricltural College, priority 2006, published 2010)
Like-named read-outs stand apart in the source and are kept apart here.

Tests used:
[1] = Intracoronary NAC dose escalation: ECG (QT interval, arrhythmias, heart rate)
Description: Accordingly, the effects of escalating doses of intracoronary NAC (Cumberland Pharmaceuticals, Nashville, Tenn.) mixed with contrast medium on blood pressure and cardiac rhythm were tested in two healthy farm raised pigs (23 and 26 kg).
The pigs were anesthetized with Isoflurane after intramuscular pre-medication with Ketamine (20 mg/kg). After endotracheal intubation they were ventilated (Harvard Apparatus, Holliston, Mass.) with a mixture of oxygen and 1-3 percent isoflurane. A surgical level of anesthesia was confirmed prior to obtaining percutaneous femoral arterial access using a 6-French sheath. A JR 4 or HS guide catheter was inserted and placed at the ostium of the left main coronary artery. Continuous twelve-lead ECG and catheter based pressures were digitally recorded with the administration of bolus injections of NAC. The initial dose was 56.6 mg of NAC diluted in 5 mL of. Iopamidol (Isovue 370®, Bracco Pharmaceuticals, Princeton, N.J.). This dose of 11.3 mg NAC/mL is referred to as the target dose because it would deliver a dose of 1850 milligrams of NAC to an average patient undergoing a percutaneous coronary intervention. […] Following at least five injections of the target dose, a total of four high dose injections were performed, two of 250 mg per 5 mL bolus and two of 500 mg NAC per 5 mL bolus (equal to 4.4× and 8.8× target dose). […] Blood pressure and QT interval were analyzed at the end of three succeeding respiratory cycles (6, 12 and 18 seconds after injection) and are reported as a mean percent change from baseline.
In the dose escalation study the effect of each injection on blood pressure and QT interval was expressed as a percentage change from the immediately preceding baseline and analyzed by a paired student's t-test. A p-value of less than 0.05 was accepted as statistically significant.

myocyte nuclei = assay: Ischemia-reperfusion model: TUNEL assay for apoptosis in myocardium; format: in vivo, pig; conditions: for nuclei stained positive for apoptosis (TUNEL): infarct tissue; for nuclei stained positive for apoptosis (TUNEL) / nuclei stained TUNEL positive: mean±SD; for nuclei stained TUNEL positive: non-infarcted area at risk
Description: Sedation, anesthesia and instrumentation of the pigs were accomplished in accordance to the dose escalation study. All pigs received a bolus of 2000 units of heparin sulfate after obtaining femoral artery access. A guide wire (PT2, 0.014″×185 cm, Boston Scientific, Natick, Mass.) was then advanced into the left anterior descending (LAD) coronary artery followed by inflation of a balloon (Monorail Maverick, 2.5×15 mm, Boston Scientific) in its mid-portion, just distal to the second diagonal branch. Total occlusion was confirmed by contrast injections after increasing balloon pressures in 1 atm increments. Total occlusion time was 60 minutes. Throughout the experiment, the animals were monitored by continuous digital ECG recordings and guide catheter pressure recordings. Digital cineangiograpic recordings were obtained in straight anterioposterior projections. TUNEL assays were performed on samples from […] area at risk and infarcted tissue to investigate if NAC reduces ischemia-reperfusion induced apoptosis. A total of four samples from two control animals and six samples from three NAC treated animals were analyzed. Tissue sections were deparaffinized and permeabilized with proteinase K (25 μg/ml in 100 mM Tris.HCl). An in situ apoptotic cell death detection kit (TMR red; Roche Applied Bio Sciences, Indianapolis, Ind.) based on the TUNEL assay was used to detect apoptotic cells. Sections were mounted with Vectashield mounting medium containing 4′,6-diamidino-2-phenylindole (DAPI; Vector Laboratories, Burlingame, Calif.) as a nuclear counterstain. Sections were examined with a Zeiss Axiovert 200 microscope and Zeiss LSM 510 META laser scanning confocal microscope. The percentage of apoptotic nuclei per section was calculated by counting the total number of TUNEL-staining nuclei divided by the total number of DAPI-positive nuclei in 10 randomly selected fields at ×40 magnification (14).

[2] = test system: pig model of myocardial ischemia and reperfusion; assay: Ischemia-reperfusion model: area at risk and infarct size (Evans Blue / TTC staining); format: in vivo; conditions: for area at risk as a percentage of ventricular myocardium / infarct size as a percentage of the area at risk / infarct size as percent of ventricular myocardium (TTC staining): 60 min LAD occlusion, 24 h reperfusion, 200 ml contrast, NAC 11.3 mg/mL, n=5, mean±SD
Description: Sedation, anesthesia and instrumentation of the pigs were accomplished in accordance to the dose escalation study. All pigs received a bolus of 2000 units of heparin sulfate after obtaining femoral artery access. A guide wire (PT2, 0.014″×185 cm, Boston Scientific, Natick, Mass.) was then advanced into the left anterior descending (LAD) coronary artery followed by inflation of a balloon (Monorail Maverick, 2.5×15 mm, Boston Scientific) in its mid-portion, just distal to the second diagonal branch. Total occlusion was confirmed by contrast injections after increasing balloon pressures in 1 atm increments. Total occlusion time was 60 minutes. Throughout the experiment, the animals were monitored by continuous digital ECG recordings and guide catheter pressure recordings. Digital cineangiograpic recordings were obtained in straight anterioposterior projections. A total of 200 ml of contrast medium was administered to each animal. Approximately half of the contrast volume was used during diagnostic angiography and insertion of the guidewire into the LAD. The remaining contrast was injected after deflation of the balloon during the reperfusion period. After 20-30 minutes of reperfusion, catheter, balloon and guide wire were withdrawn. An Angio-Seal 6-French femoral artery closure device (St. Jude Medical, St. Paul, Minn.) was deployed and the Isoflurane was discontinued. After 30 minutes the ECG recording was stopped and the animals were extubated and transferred to the animal housing facility. No animal was lost during the housing period. Twenty four hours later the animals were sedated and intubated. The thoracic cavity was opened by a midline sternotomy and ligatures were placed at the site of the proximal balloon occlusion, the aortic arch branches and the descending aorta. The right carotid artery was cannulated and a plastic catheter advanced into the aortic root. […] The vessels were occluded in the following order: LAD, aortic arch branches and descending aorta. The dye was then injected at a perfusion pressure of 120 mmHg until the myocardium was stained. […] In the NAC group two animals could not be used for the myocardial infarction analysis (insufficient Evans Blue staining, unsuccessful electrical cardioversion). Evans Blue stained hearts were harvested and the atria were removed. The ventricles were sliced into one centimeter slices in a bread loaf fashion, with the first slice at the apex. At least five slices could be obtained in all hearts. The basal surfaces of the slices were sequentially imaged. Small samples of myocardium from areas of necrosis, area at risk and normal left ventricular myocardium were obtained from the apical side of the second and third slice and stored for additional analyses. […] The basal surfaces were then re-imaged. Area analysis (planimetry) was performed with the NIH-Image program (Scion Image Version 4.0.2). The size of the area at risk and infarct size for each slice was determined by multiplying the mass of the slice by the fraction of area at risk or by the fraction of area of infarction. Total infarct size and the area at risk size were expressed as a percentage of biventricular mass to account for the anterior right ventricular infarction.

[3] = Ischemia-reperfusion model: serum creatinine; format: in vivo, pig; conditions: for baseline creatinine level / creatinine level: serum, mean±SD; for baseline creatinine level: prior to contrast medium administration; for creatinine level: twenty four hours after ischemia-reperfusion, 200 ml contrast
Description: Sedation, anesthesia and instrumentation of the pigs were accomplished in accordance to the dose escalation study. All pigs received a bolus of 2000 units of heparin sulfate after obtaining femoral artery access. A guide wire (PT2, 0.014″×185 cm, Boston Scientific, Natick, Mass.) was then advanced into the left anterior descending (LAD) coronary artery followed by inflation of a balloon (Monorail Maverick, 2.5×15 mm, Boston Scientific) in its mid-portion, just distal to the second diagonal branch. Total occlusion was confirmed by contrast injections after increasing balloon pressures in 1 atm increments. […] Throughout the experiment, the animals were monitored by continuous digital ECG recordings and guide catheter pressure recordings. Digital cineangiograpic recordings were obtained in straight anterioposterior projections. A total of 200 ml of contrast medium was administered to each animal. Approximately half of the contrast volume was used during diagnostic angiography and insertion of the guidewire into the LAD. The remaining contrast was injected after deflation of the balloon during the reperfusion period. After 20-30 minutes of reperfusion, catheter, balloon and guide wire were withdrawn. An Angio-Seal 6-French femoral artery closure device (St. Jude Medical, St. Paul, Minn.) was deployed and the Isoflurane was discontinued. After 30 minutes the ECG recording was stopped and the animals were extubated and transferred to the animal housing facility. No animal was lost during the housing period. Serum was collected prior to contrast exposure and 24 hours after infarction and analyzed for creatinine. An attempt was also made to assay Cystatin C as a second renal marker. However, Cystatin C was undetectable in pig serum.

[4] = test system: pig model of myocardial ischemia and reperfusion; assay: Ischemia-reperfusion model: infarct morphology (circumference/area index); format: in vivo; conditions: for morphologic appearance of the infarcted area: TTC stained sections
Description: (§1) Sedation, anesthesia and instrumentation of the pigs were accomplished in accordance to the dose escalation study. All pigs received a bolus of 2000 units of heparin sulfate after obtaining femoral artery access. A guide wire (PT2, 0.014″×185 cm, Boston Scientific, Natick, Mass.) was then advanced into the left anterior descending (LAD) coronary artery followed by inflation of a balloon (Monorail Maverick, 2.5×15 mm, Boston Scientific) in its mid-portion, just distal to the second diagonal branch. Total occlusion was confirmed by contrast injections after increasing balloon pressures in 1 atm increments. Total occlusion time was 60 minutes. Throughout the experiment, the animals were monitored by continuous digital ECG recordings and guide catheter pressure recordings. Digital cineangiograpic recordings were obtained in straight anterioposterior projections. In order to quantify visual differences in infarct morphology, a circumference/area index of the infarcted myocardium using TTC stained sections was calculated.

[5] = test system: pig model of myocardial ischemia and reperfusion; assay: Ischemia-reperfusion model: periprocedural arrhythmias (VT, VF, DCCV); format: in vivo; conditions: 200 ml contrast, NAC 11.3 mg/mL
Description: as §1, with “projections.” for “projections. In order to quantify visual differences in infarct morphology, a circumference/area index of the infarcted myocardium using TTC stained sections was calculated.”
Blood pressure, heart rate, and high-resolution ECG were continuously recorded beginning at the time of coronary occlusion and for 30 minutes following reperfusion. The occurrence of ventricular tachycardia during coronary occlusion or reperfusion (defined as more than 4 consecutive ventricular ectopic beats) and ventricular fibrillation were recorded. […] (DCCV) was provided for ventricular fibrillation and ventricular tachycardia with hemodynamic instability. No antiarrhythmic medications were used.

[6] = 250 mg NAC per 5 mL bolus, six seconds
[7] = 500 mg NAC per 5 mL bolus, six seconds
[8] = 5 ml contrast with target dose NAC 11.3 mg/mL, 6 seconds after injection
[9] = target dose NAC 11.3 mg/mL, 18 seconds after injection

CC(=O)N[C@@H](CS)C(=O)O [NAC, N-acetylcysteine]
QT interval prolongation ([1]; 250 mg NAC bolus, 18 seconds): normalized
QT interval prolongation ([1]; 250 mg NAC bolus, immediately after injection): 16%
time to complete recovery of QT interval to baseline ([1]; 500 mg NAC bolus): 45 to 60 s
QT interval prolongation ([1]; 500 mg NAC bolus, 18 seconds): 9%
QT interval prolongation ([1]; 500 mg NAC bolus, immediately after injection): 35%
arrhythmias or changes in heart rate after injections of contrast containing NAC ([1]; healthy pigs, intracoronary bolus injections): did not cause any arrhythmias or changes in heart rate
QT interval prolongation ([1]; target dose 11.3 mg/mL, eighteen seconds after injection): significant QT prolongation was no longer present
QT interval prolongation ([1]; target dose 11.3 mg/mL, six seconds after injection): 10%
nuclei stained positive for apoptosis (TUNEL) (myocyte nuclei): 33.0±3.7%
nuclei stained TUNEL positive (myocyte nuclei): 1.6±1.6%
TUNEL positive myocyte nuclei (myocyte nuclei; non-ischemic myocardium (non-LAD territories), NAC treated vs control): without a significant difference
reduction of diastolic blood pressure [6]: 26%
reduction of systolic blood pressure [6]: 14%
time to recovery of diastolic pressures (250 mg and 500 mg bolus): 45 to 60 s
systolic blood pressure (250 mg and 500 mg bolus, after 18 seconds): normalized
reduction of diastolic blood pressure [7]: 43%
reduction of systolic blood pressure [7]: 48%
reduction in diastolic blood pressure [8]: 17%
reduction of systolic blood pressure [8]: 5%
time to complete normalization of blood pressure (target dose NAC 11.3 mg/mL): 45 to 60 s
decrease in diastolic pressure [9]: about 7%
systolic pressure [9]: returned to pre-injection pressures
area at risk as a percentage of ventricular myocardium [2]: 18.4±1.8%
infarct size as a percentage of the area at risk [2]: 44.7±12.4%
infarct size as percent of ventricular myocardium (TTC staining) [2]: 8.2±2.3%
reduction in infarct size ([2]; NAC-contrast vs contrast-only): approximately 50%
reduction of the rise in post procedure creatinine levels ([3]; NAC provided during contrast administration vs contrast-only): about 60%
baseline creatinine level [3]: 1.29 ± 0.15 mg/dL
creatinine level [3]: 1.49 ± 0.06 mg/dL
morphologic appearance of the infarcted area [4]: mottled appearance
ratio of infarct circumference to infarct area ([4]; compared with control animals): greater
ventricular arrhythmias during ischemia-reperfusion [5]: developed ventricular tachycardia, fibrillation or both

C[C@H](O)C(=O)Nc1c(I)c(C(=O)NC(CO)CO)c(I)c(C(=O)NC(CO)CO)c1I [Iopamidol]
QT changes ([1]; contrast injections without NAC): No significant QT changes
nuclei stained positive for apoptosis (TUNEL) (myocyte nuclei): 35.8±5.7%
nuclei stained TUNEL positive (myocyte nuclei): 32.1±4.0%
blood pressure effects of control injections (contrast only, intracoronary injection): did not show such effects
area at risk as a percentage of ventricular myocardium [2]: 15.1±4.8%
infarct size as a percentage of the area at risk [2]: 92.4±6.3%
infarct size as percent of ventricular myocardium (TTC staining) [2]: 13.9±4.5%
increase in creatinine levels ([3]; 200 ml of contrast without periprocedural hydration, 24 h): 37%
baseline creatinine level [3]: 1.32 ± 0.26 mg/dL
creatinine level [3]: 1.82 ± 0.24 mg/dL
morphologic appearance of the infarcted area [4]: homogeneous with discrete borders
ventricular arrhythmias during ischemia-reperfusion [5]: none of the control ischemia-reperfusion animals developed ventricular fibrillation or required DCCV
